# Experimental data taken from patent US9023857B2, “Substituted 6-(2-aminobenzylamino)purine derivatives, their use as medicaments and preparations containing these compounds” (Univerzita Palackeho V Olomouci, priority 2009, dated 2015).
# Key:
# [1] = tested on: p53 protein in BT549 (mut p53) breast cancer cell line; test: p53 protein expression in BT549 cells (immunoblotting); assay type: cell-based, human; settings: BT549 (mutant p53), 5 μM, 6, 12 and 24 hrs
# Method: (a) DO-1, DO-2 and 1801 monoclonal antibodies recognise the N-terminal region of p53 protein, monoclonal antibodies DO-11 and DO-12 recognise different epitopes in the core domain of p53 protein, monoclonal antibodies Bp53-10 and Pab421 recognise the C-terminal region of p53 protein. (b) Monoclonal antibody 118 recognises p21^WAF1.
# For direct immunoblotting, total cellular protein lysates were prepared by harvesting cells in hot Laemmli electrophoresis sample buffer. Proteins were then separated by SDS-polyacrylamide gel electrophoresis (SDS-PAGE) on 10% gel and transferred onto a nitrocellulose membrane in Bio.Rad Mini Trans-Blott Electrophoretic Transfer Cell for 2 hrs at 4° C. applying 150 mA in transfer buffer ([…], 190 mM glycine and 20% methanol). Prestained molecular weight markers (Bio-Rad) were run in parallel. […]
# First, we determined appropriate concentration of 103 and 105 for our experiments. The MCF-7 (wt p53) cells were treated for 12 hrs with increasing concentrations of 105 ranging from 1 to 100 μM and analysed for p53 protein expression using monoclonal antibody DO-1 (FIG. 3A). […] We analysed the expression of p53 protein in MCF-7 (wt p53), BT549 (mut p53) and BT474 (mut p53) breast cancer cell lines, in HT29 (mut p53) colorectal cancer cell line and in ostaosarcoma cell line HOS (mut p53). […]
# [2] = tested on: HIV promoter (pHIV-lacZ, extrachromosomal) in H1299-TAT cells; test: β-galactosidase expression from pHIV-lacZ transiently transfected to H1299-TAT; settings: H1299-TAT cells (FIG. 11)
structure (smiles),measurement,setting,value
"CCC(CO)Nc1nc(NCc2ccccc2N)c2ncn(C(C)C)c2n1 (centres unmarked) [Compound 105, 2-({6-[(2-aminobenzyl)amino]-9-isopropyl-9H-purin-2-yl}amino)butan-1-ol]",induction of p53,[1],No induction
same,"expression from pHIV-lacZ (extrachromosomal location), β-galactosidase readout",[2],inhibited
